Measurements from patent US4518611A, “2-Furylbutyrolactone modulation of the immune system in mammals” (priority 1983, dated 1985).
Like-named read-outs stand apart in the source and are kept apart here.

What was measured:
[1] = test system: BSA antibody response
Source text: (§1) The effect of the compounds of this invention on the immune response to specific antigens involves immunization of mice with specific antigens such as bovine serum albumin (BSA) or keyhole limpet hemocyanin (KLH). Following immunization, it is possible to assess the cell-mediated or humoral (antibody) immune response to these antigens by various methods:
(2) Antibody response to soluble antigens such as BSA or KLH can be quantitated using a micro-ELISA solid phase heterogeneous immunoassay. The assay can be designed to quantitate class specific immunoglobulins (i.e., IgG or IgM).
The cut-off for the titer was the highest dilution of mouse serum yielding on O.D.≤0.1 when read on the MR-600 Dynatech micro-ELISA reader.
Mice of the C57BL/6 strain are given i.p. injections of either 50, 100, 200 or 400 mg/kg of Cpd. 1 or buffer for twelve days (days 1-12). An antigen, bovine serum albumin (BSA), is administered intraperitoneally with Freund's Complete Adjuvant (FCA) on days 1, 7 and 14. Blood samples are taken for assay of the antibody response on days 0, 5, 13, and 19.

[2] = test system: spleen lymphocytes; details: 7 days
Experimental: The purpose of this assay is to challenge lymphocytes in microcultures with one or more polyclonal mitogens at concentrations that will induce mitogenesis within 72 hours of stimulation.
In the mouse model, spleens are removed from different strains of mice and the spleen cells are teased free and suspended in RPMI-1640 tissue culture medium at a concentration of usually […]. These cells are dispensed at a concentration of 5.0×10^5 cells per microculture well in a 96 well flat bottom 96 well tissue culture plate. All testing of the compounds of this invention or mitogens are done in replicates of 10. The cells are then treated with PHA, Con-A, specific antigens, or buffer only. If in vitro testing is done, varying concentrations of the compounds of this invention or buffer only are added to the cells as well. After treatment with the mitogens and/or compounds of this invention, the cells are incubated for 72 hours. The response of these cells to mitogens and/or the compounds of this invention is assessed using ^14 C-thymidine labeling on the fourth day at a concentration of 0.01 μCi/well. The labeled cells are harvested using a lymphocyte harvestor and placed onto fibrous paper discs. A scintillation cocktail is added to vials containing the discs and the results are obtained using a LKB-liquid scintillation counter (Model 1216/Rackbeta II). The data is expressed as a ratio of the cpm of the mitogen stimulated group to the control (nonmitogen) treated group=lymphocyte stimulation index (LSI).
The lymphocyte stimulation assay may be performed directly on spleen cells obtained from various strains of mice not treated with the compounds of this invention or on lymphocytes obtained from human […]. […] Alternatively, the mice may be treated in vivo with the compounds of this invention by intraperitoneal multi-dose schedules, followed by sacrifice and harvesting spleen lymphocytes. These cells are then tested for their response to polyclonal mitogens or specific antigens used to immunize the mice. In this system however, no additional compound is added to the in vitro lymphocyte stimulation assay system.
Two strains of mice, C57BL/6 and BDF1 are treated for seven days with i.p. administration of either 25, 50, 100, 200, or 400 mg/kg of Cpd. 1 or just buffer. This is followed on the eighth day by a lymphocyte stimulation assay.

[3] = test system: spleen lymphocytes
Source text: as §1
(1) Lymphocyte stimulation assays can be performed using varying concentrations of the specific antigens as mitogens in the lymphocyte stimulation microculture system described above. The only difference is that the incubation period is extended to five days instead of three as for the polyclonal mitogens.
Mice of the C57BL/6 strain are given i.p. injections of either 50, 100, 200 or 400 mg/kg of Cpd. 1 or buffer for ten days (days 1-10). An antigen, keyhole limpet hemocyanin (KLH), is administered intraperitoneally with Freund's Complete Adjuvant (FCA) on days 1, 7, and 13. Blood samples are taken for assay of the antibody response on days 0, 5, 12, and 17. Spleens are removed, lymphocytes isolated and a lymphocyte stimulation assay with PHA, Con-A or KLH antigen as the mitogens is performed on day 17 of the experiment.

## Cc1ccc(C2(O)C(=O)OC3C(O)COC32O)o1.Cc1ccc(C2(O)C(=O)OC3C(O)COC32O)o1.O=C1CCC(=O)O1 (centres unmarked) [Cpd. 1, 2-furylbutyrolactone:succinic anhydride]
[1]; 50 mg/kg i.p., Day 5
  Micro-ELISA Titer: N/R
[1]; 50 mg/kg i.p., Prebleed
  Micro-ELISA Titer: N/R
[1]; 50 mg/kg, day 19
  antibody titer versus control (in words): A slight increase of antibody titer over the control
[1]; 100 mg/kg i.p., Day 5
  Micro-ELISA Titer: N/R
[1]; 100 mg/kg i.p., Prebleed
  Micro-ELISA Titer: N/R
[1]; 200 mg/kg i.p., Day 5
  Micro-ELISA Titer: N/R
[1]; 200 mg/kg i.p., Prebleed
  Micro-ELISA Titer: N/R
[1]; 400 mg/kg i.p., Day 5
  Micro-ELISA Titer: N/R
[1]; 400 mg/kg i.p., Prebleed
  Micro-ELISA Titer: N/R
[1]; 400 mg/kg, day 19
  antibody response versus control (in words): the antibody responses to BSA are equal at the 0 mg/kg and 400 mg/kg dose
[1]; 50 and 100 mg/kg, day 13
  stimulation of antibody response (in words): only a slight amount of stimulation
[1]; 100 and 200 mg/kg, day 19
  increase over controls of antibody titer (fold): 16 fold
[1]; 200 and 400 mg/kg, day 13
  stimulation of antibody response (fold): four-fold
[2]; 25 mg/kg i.p.
  Lymphocyte Stimulation Index, Con-A: 4.3
  Lymphocyte Stimulation Index, Control (buffer, pH 8.05): 0.8
  Lymphocyte Stimulation Index, PHA: 13.8
[2]; 50 mg/kg i.p.
  Lymphocyte Stimulation Index, Con-A: 21.6
  Lymphocyte Stimulation Index, Control (buffer, pH 8.05): 0.9
  Lymphocyte Stimulation Index, PHA: 52.1
[2]; 100 mg/kg i.p.
  Lymphocyte Stimulation Index, Con-A: 17.9
  Lymphocyte Stimulation Index, Control (buffer, pH 8.05): 0.7
  Lymphocyte Stimulation Index, PHA: 48.7
[2]; 200 mg/kg i.p.
  Lymphocyte Stimulation Index, Con-A: 2.9
  Lymphocyte Stimulation Index, Control (buffer, pH 8.05): 0.8
  Lymphocyte Stimulation Index, PHA: 7.8
[2]; 400 mg/kg i.p.
  Lymphocyte Stimulation Index, Con-A: 0.9
  Lymphocyte Stimulation Index, Control (buffer, pH 8.05): 0.9
  Lymphocyte Stimulation Index, PHA: 1.1
[3]; 50 mg/kg, Day 17
  Lymphocyte Stimulation Index, Con-A: 19.0
[3]; 50 mg/kg, KLH 0.025 μg/well, Day 17
  Lymphocyte Stimulation Index: 0.0386
[3]; 50 mg/kg, KLH 0.05 μg/well, Day 17
  Lymphocyte Stimulation Index: 0.357
[3]; 50 mg/kg, KLH 0.5 μg/well, Day 17
  Lymphocyte Stimulation Index: 0.415
[3]; 50 mg/kg, KLH 1.0 μg/well, Day 17
  Lymphocyte Stimulation Index: 0.536
[3]; 100 mg/kg, KLH 0.025 μg/well, Day 17
  Lymphocyte Stimulation Index: 0.401
[3]; 100 mg/kg, KLH 0.05 μg/well, Day 17
  Lymphocyte Stimulation Index: 0.526
[3]; 100 mg/kg, KLH 0.5 μg/well, Day 17
  Lymphocyte Stimulation Index: 0.734
[3]; 100 mg/kg, KLH 1.0 μg/well, Day 17
  Lymphocyte Stimulation Index: 0.898
[3]; 200 mg/kg, Con-A or KLH, day 17
  lymphocyte DNA synthesis (in words): statistically significant increase in lymphocyte DNA synthesis
[3]; 200 mg/kg, KLH 0.025 μg/well, Day 17
  Lymphocyte Stimulation Index: 3.91
[3]; 200 mg/kg, KLH 0.05 μg/well, Day 17
  Lymphocyte Stimulation Index: 1.02
[3]; 200 mg/kg, KLH 0.5 μg/well, Day 17
  Lymphocyte Stimulation Index: 4.26
[3]; 200 mg/kg, KLH 1.0 μg/well, Day 17
  Lymphocyte Stimulation Index: 7.45
[3]; 400 mg/kg, Day 17
  Lymphocyte Stimulation Index, Control (no mitogen): 0.840
[3]; 400 mg/kg, KLH 0.025 μg/well, Day 17
  Lymphocyte Stimulation Index: 1.03
[3]; 400 mg/kg, KLH 0.05 μg/well, Day 17
  Lymphocyte Stimulation Index: 0.667
[3]; 400 mg/kg, KLH 0.5 μg/well, Day 17
  Lymphocyte Stimulation Index: 0.232
[3]; 400 mg/kg, KLH 1.0 μg/well, Day 17
  Lymphocyte Stimulation Index: 0.589
